The values below come from patent US20240043400A1, “Octahydroisoquinolinyl Derivatives” (UCB Biopharma SRL, priority 2020, published 2024).

In data set [1] the target is T1, human GABAA receptor α1β2 and γ2 subunits (Homo sapiens, UniProt P14867+P18507+P47870).
T1 construct: expressed in transfected cells
The data set can be described thus: Automated patch clamp studies on the GABAA receptor cells. The data set is classed as cell-based. The settings on record: CHO-K1, 10 μM compound, 15 μM GABA, Table B. The protocol: CHO-K1 cells stably expressing human GABAA receptor α1β2 and γ2 subunits were used. The cells were harvested using trypsin and maintained in serum-free medium at room temperature. The cells were washed and re-suspended in extracellular solution before testing.
Experiments on human GABAA (α1β2γ2) channels were conducted using an automated patch clamp assay (lonFlux™ HT). The external solution for recording GABAA currents was composed of sodium chloride 137 mM, potassium chloride 4 mM, calcium chloride 1.8 mM, magnesium chloride 1 mM, HEPES 10 mM, and glucose 10 mM. Both external and internal solutions were titrated with NaOH or KOH to obtain a pH of 7.35 and 7.3, respectively. The internal pipette solution contained potassium fluoride 70 mM, potassium chloride 60 mM, sodium chloride 70 mM, HEPES 5 mM, EGTA 5 mM, and Magnesium ATP 4 mM. The final concentration of vehicle used to dilute compounds was 0.33% DMSO in each well. Bicuculline (0.032 to 100 μM) was used as positive control inhibitor. GABA (15 μM) was used as agonist. All recordings were obtained from a holding potential of −60 mV.
The compound addition sequence was the following: one addition of the EC80 concentration of GABA was added to establish baseline response. Each concentration of compound was applied for 30 seconds followed by the addition of 15 μM GABA in the presence of the compound for 2 seconds. The process was repeated with the next ascending concentration of compound. Peak inward currents in response to the GABA additions in the presence of a single concentration of compound were measured. All compound data have been normalized to the baseline peak current induced by addition of 15 μM GABA for 2 seconds.

The target of another data set is T2, CYP3A4 (Homo sapiens, UniProt P08684).
T2 construct: cryopreserved human microsomes (pooled donors); from tissue
T2 sequence (P08684 whole entry): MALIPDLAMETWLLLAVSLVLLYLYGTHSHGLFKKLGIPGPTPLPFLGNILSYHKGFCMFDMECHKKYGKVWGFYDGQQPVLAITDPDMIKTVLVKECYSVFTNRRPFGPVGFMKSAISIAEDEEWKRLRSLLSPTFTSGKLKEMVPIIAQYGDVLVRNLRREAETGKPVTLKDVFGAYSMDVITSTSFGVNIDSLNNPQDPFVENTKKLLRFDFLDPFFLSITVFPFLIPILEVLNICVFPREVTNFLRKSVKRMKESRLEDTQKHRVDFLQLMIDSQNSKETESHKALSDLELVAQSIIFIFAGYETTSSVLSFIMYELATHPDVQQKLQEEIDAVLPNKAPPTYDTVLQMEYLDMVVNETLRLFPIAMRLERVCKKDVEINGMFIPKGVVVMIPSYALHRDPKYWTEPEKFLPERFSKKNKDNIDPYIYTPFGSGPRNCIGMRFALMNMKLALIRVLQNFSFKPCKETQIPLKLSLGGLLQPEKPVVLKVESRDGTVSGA
The data set can be described thus: In vitro assessment of CYP3A4 inhibition potential using cryopreserved human microsomes. The data set is classed as in vitro ADME. The settings on record: human, cryopreserved human microsomes (pooled donors), probe midazolam 2.5 μM (1-hydroxymidazolam formation), 20 μM compound, human microsomes 0.25 mg/ml, Table C. The procedure:
The objective of the human microsome assay is to characterize the inhibition potential of Compound of formula (I) by measuring the CYP3A4 activities after its co-incubation with midazolam, a specific CYP3A4 substrate.
To this aim, cryopreserved human microsomes (pooled donors) are divided on a 48 well collagen coated plate so that the final concentration is 0.25 mg/ml. The UCB compound is then added in the wells at 20 μM concentration in duplicate. After 30 min incubation, midazolam is added at 2.5 μM concentration. After 15 min, an aliquot is removed and placed into an equal volume of methanol containing internal standard. The samples are centrifuged at 2500 rpm at 4° C. for 20 min. An aliquot of supernatant is diluted with deionised water and levels of 1-hydroxymidazolam is quantified using generic LC MS/MS methods.
The concentrations are compared to those obtained after midazolam incubation at the same concentration but without UCB compound pre-incubation. The results are expressed as % of inhibition.

In the next data set the target is T3, dopamine D1 receptor (Homo sapiens, UniProt P21728).
T3 construct: host or cells: LMtk (Ltk-) mouse fibroblast cells, kept under Geneticin
T3 sequence (P21728 whole entry): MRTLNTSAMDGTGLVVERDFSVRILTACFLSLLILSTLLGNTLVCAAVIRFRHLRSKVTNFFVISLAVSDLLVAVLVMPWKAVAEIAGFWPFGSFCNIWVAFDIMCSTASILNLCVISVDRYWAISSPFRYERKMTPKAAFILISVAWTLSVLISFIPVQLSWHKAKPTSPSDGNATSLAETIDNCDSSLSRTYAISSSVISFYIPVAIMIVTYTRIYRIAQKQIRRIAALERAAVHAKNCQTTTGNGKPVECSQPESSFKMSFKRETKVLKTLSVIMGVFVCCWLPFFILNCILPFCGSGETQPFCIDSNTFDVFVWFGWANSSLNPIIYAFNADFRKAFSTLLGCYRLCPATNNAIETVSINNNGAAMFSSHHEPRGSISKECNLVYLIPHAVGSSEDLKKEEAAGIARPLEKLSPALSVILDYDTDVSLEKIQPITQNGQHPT
Nature of the data set: cAMP HTRF potentiation assay (in the presence of dopamine). It counts as cell-based. The settings on record: potentiation of cAMP with [EC20] of dopamine (1.1 nM); LMtk (Ltk−) mouse fibroblast cells expressing the dopamine D1 receptor. The procedure: The potentiation assay measures the ability of compounds to increase the levels of cAMP produced by a low-threshold concentration of dopamine. The concentration of dopamine used ([EC20]) is designed to produce 20% stimulation compared to the maximal response (100%) seen with increasing the concentration of dopamine. To measure this potentiation we incubate increasing concentrations of the compound with the [EC20] of dopamine and measure the potentiation as increases in cAMP production. The pEC50 of a compound is the −log 10 of the concentration of the compound which produces 50% of the potentiation of the cAMP levels and the Erel is the relative efficacy, defined as the maximal % potentiation produced by the compound compared to the maximal response produced by increasing concentrations of dopamine (Erel of 1=dopamine maximum response).
Cells were cultured at 37° C. in a humidified atmosphere of 5% CO2. Cells were grown in DMEM-F12+GlutaMAX™-1 medium (GIBCO®, Invitrogen, Merelbeke, Belgium) containing 10% fetal bovine serum (BioWhittaker®, Lonza, Verviers, Belgium), 400 μg/mL Geneticin (GIBCO®), 100 IU/mL Penicillin and 100 IU/mL Streptomycin (Pen-Strep solution, BioWhittaker®).
The measurement of changes in intracellular cyclic adenosinemonophopshpate (cAMP) was determined using the HTRF cAMP dynamic assay kit from CisBio (Codolet, France). Using homogenous time-resolved fluoresence technology, the assay is based on competition between native cAMP produced by cells and cAMP labelled with the dye d2. The tracer binding is determined by an anti-cAMP antibody labeled with cryptate. The effects of the compound alone (agonism) was determined by performing the assay in the absence of dopamine, whilst the effect of the compound as a positive allosteric modulator (PAM) was determined in the presence of an EC20 concentration of dopamine. Cells (20,000 per well) are incubated in 384 plates for 1 h at rt in a final volume of 20 μLHBSS (Lonza, with calcium, magnesium and HEPES buffer 20 mM, pH 7.4) containing: isobutyl methylxanthine (Sigma, 0.1 mM final), varying concentrations of test compound (typically 10^−9.5 M to 10^−4.5 M) in the presence and absence of dopamine (1.1 nM final). The reaction is then terminated and the cells lysed by adding the d2 detection reagent in lysis buffer (10 μL) and the cryptate reagent in lysis buffer (10 μL) according to manufacturer's instructions. This is then incubated for a further 60 min at rt and changes in HTRF fluorescent emission ratio determined according to manufacturer's instructions using an Envision plate reader (Perkin Elmer, Zaventem, Belgium) with laser excitation. All incubations were performed in duplicate and results were compared to a concentration-effect curve to dopamine. (10^−11 M to 10^−6 M).
Data was analyzed using Excel and PRISM (GraphPad Software) to obtain pEC50 and Erel using the 4-parameter logistic equation (DeLean et al, 1978) where Erel is the fitted maximal response of the test compound minus basal expressed as a percentage relative to that obtained with dopamine which was defined as 100%.

Each structure is given as a SMILES string. pEC50: −log10 of the molar value.

T1 sequence (P14867 28-456): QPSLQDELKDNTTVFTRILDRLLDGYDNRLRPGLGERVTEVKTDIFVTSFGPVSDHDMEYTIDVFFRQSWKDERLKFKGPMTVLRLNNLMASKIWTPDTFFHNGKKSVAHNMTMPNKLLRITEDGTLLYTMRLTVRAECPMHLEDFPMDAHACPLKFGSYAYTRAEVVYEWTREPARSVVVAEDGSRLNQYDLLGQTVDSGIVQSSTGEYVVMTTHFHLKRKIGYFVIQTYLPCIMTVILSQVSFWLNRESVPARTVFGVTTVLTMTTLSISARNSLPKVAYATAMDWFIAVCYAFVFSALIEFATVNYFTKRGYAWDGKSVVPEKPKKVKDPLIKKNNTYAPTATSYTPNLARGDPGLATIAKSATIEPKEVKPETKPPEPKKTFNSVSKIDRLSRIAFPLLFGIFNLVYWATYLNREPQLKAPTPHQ
T1 sequence (P47870 25-512 limits assumed): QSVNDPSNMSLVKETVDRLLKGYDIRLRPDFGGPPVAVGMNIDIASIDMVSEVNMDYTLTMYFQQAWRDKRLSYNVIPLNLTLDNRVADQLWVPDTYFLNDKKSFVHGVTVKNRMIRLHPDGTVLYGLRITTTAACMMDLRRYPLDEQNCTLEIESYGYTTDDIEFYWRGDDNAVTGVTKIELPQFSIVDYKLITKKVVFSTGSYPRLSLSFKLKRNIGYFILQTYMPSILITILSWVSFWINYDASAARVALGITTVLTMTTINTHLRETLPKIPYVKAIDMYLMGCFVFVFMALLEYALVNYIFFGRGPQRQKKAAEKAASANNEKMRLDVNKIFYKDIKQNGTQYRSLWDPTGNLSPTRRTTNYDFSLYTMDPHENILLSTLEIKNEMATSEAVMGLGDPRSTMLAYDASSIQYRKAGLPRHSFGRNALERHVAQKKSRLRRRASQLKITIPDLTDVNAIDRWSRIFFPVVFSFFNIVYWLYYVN
T1 sequence (P18507 40-475): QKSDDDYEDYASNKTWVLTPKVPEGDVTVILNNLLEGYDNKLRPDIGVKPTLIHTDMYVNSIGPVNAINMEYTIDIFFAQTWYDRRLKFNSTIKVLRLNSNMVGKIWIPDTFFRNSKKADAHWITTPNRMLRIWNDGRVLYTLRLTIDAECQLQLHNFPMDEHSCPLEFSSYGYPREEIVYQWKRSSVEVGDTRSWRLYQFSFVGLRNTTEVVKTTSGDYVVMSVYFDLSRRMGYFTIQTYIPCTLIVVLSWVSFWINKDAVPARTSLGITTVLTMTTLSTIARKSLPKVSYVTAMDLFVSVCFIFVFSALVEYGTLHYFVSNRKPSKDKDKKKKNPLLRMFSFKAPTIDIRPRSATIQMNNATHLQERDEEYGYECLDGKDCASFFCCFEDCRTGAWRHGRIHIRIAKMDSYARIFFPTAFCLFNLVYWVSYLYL

Take `C[C@H]1[C@H]2CCC[C@@H]([C@H](O)C(F)(F)F)[C@@H]2CCN1C(=O)Cc1c(Cl)cnc(CO)c1Cl` [Example 12, 1-[(1S,4aR,5R,8aS)-1-methyl-5-[(1 S)-2,2,2-trifluoro-1-hydroxy-ethyl]-3,4,4a,5,6,7,8,8a-octahydro-1H-isoquinolin-2-yl]-2-[3,5-dichloro-2-(hydroxymethyl)-4-pyridyl]ethanone]: the inhibition at 10 µM in data set [1] worked out at 9.6%. The inhibition at 15 min, 20 μM at CYP3A4 was in the range of 20 to 40%. On dopamine D1 receptor, the pEC50 is 7.80.

Regarding `C[C@H]1[C@H]2CCC[C@@H]([C@H](O)C(F)(F)F)[C@@H]2CCN1C(=O)Cc1c(Cl)cnc(C(C)(C)O)c1Cl` [Example 13, 1-[(1S,4aR,5R,8aS)-1-methyl-5-[(1S)-2,2,2-trifluoro-1-hydroxy-ethyl]-3,4,4a,5,6,7,8,8a-octahydro-1H-isoquinolin-2-yl]-2-[3,5-dichloro-2-(1-hydroxy-1-methyl-ethyl)-4-pyridyl]ethanone], the inhibition at 10 µM in data set [1] is -8%. In addition, the inhibition at 15 min, 20 μM against CYP3A4 was in the range of 20 to 40%. On dopamine D1 receptor, the pEC50 is 7.30.

As for `C[C@H]1[C@H]2CCC[C@@H]([C@H](O)C(F)(F)F)[C@@H]2CCN1C(=O)Cc1c(Cl)cc(F)c2[nH]nc(Cl)c12` [Example 14, 1-[(1 S,4aR,5R,8aS)-1-methyl-5-[(1 S)-2,2,2-trifluoro-1-hydroxy-ethyl]-3,4,4a,5,6,7,8,8a-octahydro-1H-isoquinolin-2-yl]-2-(3,5-dichloro-7-fluoro-1H-indazol-4-yl)ethanone], the inhibition at 10 µM in data set [1] was -8%. Besides, the inhibition at 15 min, 20 μM at CYP3A4 lay in the range of 40 to 60%. The negative-log EC50 (pEC50) at dopamine D1 receptor was 7.50.
